Values joined by “and” are separate entries in the source; they are usually repeats but may differ in a detail not shown here. Equal entries are not always repeated. Inconclusive results and toxic doses are left out.
System: P388 leukemia ip, CD2F1 mice, survival T/C
Assay: NCI In Vivo Anticancer Drug Screen. Data for tumor model P388 Leukemia (intraperitoneal) in CD2F1 (CDF1) mice
Settings: endpoint: median survival time, higher = longer survival
Summary of the method: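 Mice carrying the transplanted tumor received test compound or vehicle. Survival was recorded in each group, and the value is the treated-group measurement divided by that of the vehicle-treated control group.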

For `CC[C@@]1(O)C[C@H](OC2CC(N(C)C)C(OC3CC(O)C(OC4CCC(=O)C(C)O4)C(C)O3)C(C)O2)c2c(cc3c(c2O)C(=O)c2c(O)cccc2C3=O)[C@H]1C(=O)OC` (stereo partly specified), the T/C (dose: 0.5 mg/kg/injection, schedule: Q03HX008 (ip), vehicle: saline) was 120 % of control, the T/C (dose: 1.0 mg/kg/injection, schedule: Q01DX005 (iv), vehicle: saline) was 108 % of control and the T/C (dose: 1.0 mg/kg/injection, schedule: Q01DX009 (oral), vehicle: saline) was 98 % of control. For the same molecule, the T/C (dose: 1.0 mg/kg/injection, schedule: Q01DX009 (sc), vehicle: saline) was 115 % of control, the T/C (dose: 1.0 mg/kg/injection, schedule: Q03HX024 (ip), vehicle: saline) was 167 % of control and the T/C (dose: 1.0 mg/kg/injection, schedule: Q04DX003 (ip), vehicle: saline) was 103 % of control. For the same molecule, the T/C (dose: 1.94 mg/kg/injection, schedule: Q04DX003 (ip), vehicle: clinical formulation) was 96 % of control, the T/C (dose: 2.0 mg/kg/injection, schedule: Q01DX001 (iv), vehicle: saline) was 105 % of control and the T/C (dose: 2.0 mg/kg/injection, schedule: Q01DX005 (ip), vehicle: saline) was 167 % of control. The T/C (dose: 2.0 mg/kg/injection, schedule: Q01DX005 (iv), vehicle: saline) was 120 % of control, the T/C (dose: 2.0 mg/kg/injection, schedule: Q01DX009 (ip), vehicle: saline) was 168 % of control and the T/C (dose: 2.0 mg/kg/injection, schedule: Q01DX009 (oral), vehicle: saline) was 115 % of control. The T/C (dose: 2.0 mg/kg/injection, schedule: Q04DX003 (ip), vehicle: clinical formulation) was 117 % of control, the T/C (dose: 2.0 mg/kg/injection, schedule: Q04DX003 (ip), vehicle: saline) was 116 % of control and 120 % of control and the T/C (dose: 2.5 mg/kg/injection, schedule: Q01DX009 (ip), vehicle: saline) was 180 % of control. The T/C (dose: 2.59 mg/kg/injection, schedule: Q04DX002 (ip), vehicle: saline) was 114 % of control, the T/C (dose: 4.0 mg/kg/injection, schedule: Q01DX001 (iv), vehicle: saline) was 116 % of control and the T/C (dose: 4.0 mg/kg/injection, schedule: Q01DX005 (ip), vehicle: saline) was 189 % of control. For the same molecule, the T/C (dose: 4.0 mg/kg/injection, schedule: Q01DX005 (iv), vehicle: saline) was 162 % of control, the T/C (dose: 4.0 mg/kg/injection, schedule: Q01DX009 (ip), vehicle: saline) was 99 % of control and the T/C (dose: 4.0 mg/kg/injection, schedule: Q01DX009 (sc), vehicle: saline) was 153 % of control. For the same molecule, the T/C (dose: 4.0 mg/kg/injection, schedule: Q03HX008 (ip), vehicle: saline) was 173 % of control, the T/C (dose: 4.0 mg/kg/injection, schedule: Q04DX003 (ip), vehicle: Klucel (hydroxypropylcellulose) (HPC)) was 122 % of control and the T/C (dose: 4.32 mg/kg/injection, schedule: Q04DX002 (ip), vehicle: saline) was 151 % of control. The T/C (dose: 5.4 mg/kg/injection, schedule: Q04DX003 (ip), vehicle: clinical formulation) was 113 % of control, the T/C (dose: 5.4 mg/kg/injection, schedule: Q04DX003 (ip), vehicle: saline) was 159 % of control and the T/C (dose: 6.7 mg/kg/injection, schedule: Q04DX003 (ip), vehicle: water) was 154 % of control. For the same molecule, the T/C (dose: 7.2 mg/kg/injection, schedule: Q04DX002 (ip), vehicle: saline) was 161 % of control, the T/C (dose: 7.2 mg/kg/injection, schedule: Q04DX003 (ip), vehicle: saline) was 175 % of control and the T/C (dose: 8.0 mg/kg/injection, schedule: Q01DX001 (oral), vehicle: saline) was 110 % of control. The T/C (dose: 8.0 mg/kg/injection, schedule: Q01DX009 (oral), vehicle: saline) was 153 % of control, the T/C (dose: 8.0 mg/kg/injection, schedule: Q01DX009 (sc), vehicle: saline) was 95 % of control and the T/C (dose: 8.0 mg/kg/injection, schedule: Q04DX003 (ip), vehicle: clinical formulation) was 183 % of control. For the same molecule, the T/C (dose: 8.0 mg/kg/injection, schedule: Q04DX003 (ip), vehicle: saline) was 172 % of control and 176 % of control, the T/C (dose: 9.0 mg/kg/injection, schedule: Q04DX003 (ip), vehicle: clinical formulation) was 114 % of control and the T/C (dose: 9.0 mg/kg/injection, schedule: Q04DX003 (ip), vehicle: saline) was 198 % of control. For the same molecule, the T/C (dose: 10.0 mg/kg/injection, schedule: Q04DX003 (ip), vehicle: water) was 170 % of control, the T/C (dose: 12.0 mg/kg/injection, schedule: Q04DX002 (ip), vehicle: saline) was 166 % of control and the T/C (dose: 15.0 mg/kg/injection, schedule: Q04DX003 (ip), vehicle: saline) was 95 % of control. For the same molecule, the T/C (dose: 15.0 mg/kg/injection, schedule: Q04DX003 (ip), vehicle: water) was 187 % of control, the T/C (dose: 16.0 mg/kg/injection, schedule: Q01DX001 (ip), vehicle: saline) was 153 % of control and the T/C (dose: 16.0 mg/kg/injection, schedule: Q01DX001 (oral), vehicle: saline) was 116 % of control. The T/C (dose: 16.0 mg/kg/injection, schedule: Q04DX003 (ip), vehicle: Klucel (hydroxypropylcellulose) (HPC)) was 154 % of control, the T/C (dose: 16.0 mg/kg/injection, schedule: Q04DX003 (ip), vehicle: saline) was 117 % of control and the T/C (dose: 32.0 mg/kg/injection, schedule: Q01DX001 (ip), vehicle: saline) was 180 % of control. For the same molecule, the T/C (dose: 32.0 mg/kg/injection, schedule: Q01DX001 (iv), vehicle: saline) was 159 % of control.

— PubChem BioAssay AID330 (DTP/NCI, 2004)
